Assays:
MCF7 = assay: Antitumor activity against human MCF7 cells; format: functional
NCI/ADR-RES = assay: Antitumor activity against human NCI/ADR-RES cells; format: functional
[1] = Antitumor activity against human […] cells; format: functional
[2] = Antitumor activity against human HS 578T cells; format: functional
CCRF-CEM [3] = assay: Antitumor activity against human CCRF-CEM cells; format: functional
[4] = Antitumor activity against human HL60 (TB) cells; format: functional, HL-60(TB); conditions: HL-60
K562 = assay: Antitumor activity against human K562 cells; format: functional
MOLT-4 = assay: Antitumor activity against human MOLT4 cells; format: functional
RPMI-8226 = assay: Antitumor activity against human RPMI8226 cells; format: functional
SR [5] = assay: Antitumor activity against human SR cells; format: functional
A549 = assay: Antitumor activity against human A549 cells; format: functional
EKVX = assay: Antitumor activity against human EKVX cells; format: functional
HOP-62 = assay: Antitumor activity against human HOP62 cells; format: functional
HOP-92 = assay: Antitumor activity against human HOP92 cells; format: functional
NCI-H226 = assay: Antitumor activity against human NCI-H226 cells; format: functional
NCI-H23 = assay: Antitumor activity against human NCI-H23 cells; format: functional
[6] = Antitumor activity against human NCI-H322 cells; format: functional
NCI-H460 = assay: Antitumor activity against human NCI-H460 cells; format: functional
NCI-H522 = assay: Antitumor activity against human NCI-H522 cells; format: functional
COLO 205 = assay: Antitumor activity against human COLO205 cells; format: functional
HCC 2998 = assay: Antitumor activity against human HCC2998 cells; format: functional
HCT-116 = assay: Antitumor activity against human HCT116 cells; format: functional
HCT-15 = assay: Antitumor activity against human HCT15 cells; format: functional
HT-29 = assay: Antitumor activity against human HT29 cells; format: functional
KM12 = assay: Antitumor activity against human KM12 cells; format: functional
SW-620 = assay: Antitumor activity against human SW620 cells; format: functional
SF-268 = assay: Antitumor activity against human SF268 cells; format: functional
SF-295 = assay: Antitumor activity against human SF295 cells; format: functional
SF-539 = assay: Antitumor activity against human SF539 cells; format: functional
SNB-19 = assay: Antitumor activity against human SNB19 cells; format: functional
SNB-75 = assay: Antitumor activity against human SNB75 cells; format: functional
U-251 = assay: Antitumor activity against human U251 cells; format: functional
LOX IMVI = assay: Antitumor activity against human LOX IMVI cells; format: functional
Malme-3M = assay: Antitumor activity against human MALME-3M cells; format: functional
SK-MEL-28 = assay: Antitumor activity against human SK-MEL-28 cells; format: functional
SK-MEL-5 = assay: Antitumor activity against human SK-MEL-5 cells; format: functional
UACC-257 = assay: Antitumor activity against human UACC257 cells; format: functional
UACC-62 = assay: Antitumor activity against human UACC62 cells; format: functional
IGROV-1 = assay: Antitumor activity against human IGROV1 cells; format: functional
OVCAR-3 = assay: Antitumor activity against human OVCAR-3 cells; format: functional
OVCAR-4 = assay: Antitumor activity against human OVCAR4 cells; format: functional
OVCAR-5 = assay: Antitumor activity against human OVCAR5 cells; format: functional
OVCAR-8 = assay: Antitumor activity against human OVCAR8 cells; format: functional
SK-OV-3 = assay: Antitumor activity against human SK-OV-3 cells; format: functional
786-0 = assay: Antitumor activity against human 786-0 cells; format: functional
A498 = assay: Antitumor activity against human A498 cells; format: functional
ACHN = assay: Antitumor activity against human ACHN cells; format: functional
CAKI-1 = assay: Antitumor activity against human CAKI-1 cells; format: functional
RXF 393 = assay: Antitumor activity against human RXF393 cells; format: functional
SN12C = assay: Antitumor activity against human SN12C cells; format: functional
TK-10 = assay: Antitumor activity against human TK10 cells; format: functional
UO-31 = assay: Antitumor activity against human UO31 cells; format: functional
PC-3 = assay: Antitumor activity against human PC3 cells; format: functional
DU-145 = assay: Antitumor activity against human DU145 cells; format: functional
MDA-MB-435 = assay: Antitumor activity against human MDA-MB-435 cells; format: functional
BT-549 = assay: Antitumor activity against human BT549 cells; format: functional
CCRF-CEM [7] = assay: Growth inhibition of huam CCRF-CEM at 1 uM; format: functional; conditions: Homo sapiens
SR [8] = assay: Growth inhibition of human SR cells at 1 uM; format: functional

## COc1ccc([C@H]2O[C@@H](CO)C[C@]2(O)c2ccc(OC)cc2)cc1 (relative stereo)
MCF7
  GI50: > 100 µM
NCI/ADR-RES
  GI50: > 100 µM
[1]
  GI50: > 100 µM
[2]
  GI50: 39.8 µM
CCRF-CEM [3]
  GI50: > 100 µM
[4]
  GI50: 38.9 µM
K562
  GI50: > 100 µM
MOLT-4
  GI50: > 100 µM
RPMI-8226
  GI50: > 100 µM
SR [5]
  GI50: 50.1 µM
A549
  GI50: > 100 µM
EKVX
  GI50: > 100 µM
HOP-62
  GI50: > 100 µM
HOP-92
  GI50: 95.5 µM
NCI-H226
  GI50: > 100 µM
NCI-H23
  GI50: > 100 µM
[6]
  GI50: > 100 µM
NCI-H460
  GI50: > 100 µM
NCI-H522
  GI50: > 100 µM
COLO 205
  GI50: > 100 µM
HCC 2998
  GI50: > 100 µM
HCT-116
  GI50: > 100 µM
HCT-15
  GI50: > 100 µM
HT-29
  GI50: > 100 µM
KM12
  GI50: > 100 µM
SW-620
  GI50: > 100 µM
SF-268
  GI50: > 100 µM
SF-295
  GI50: > 100 µM
SF-539
  GI50: > 100 µM
SNB-19
  GI50: > 100 µM
SNB-75
  GI50: > 100 µM
U-251
  GI50: > 100 µM
LOX IMVI
  GI50: > 100 µM
Malme-3M
  GI50: > 100 µM
SK-MEL-28
  GI50: > 100 µM
SK-MEL-5
  GI50: > 100 µM
UACC-257
  GI50: > 100 µM
UACC-62
  GI50: > 100 µM
IGROV-1
  GI50: > 100 µM
OVCAR-3
  GI50: > 100 µM
OVCAR-4
  GI50: > 100 µM
OVCAR-5
  GI50: > 100 µM
OVCAR-8
  GI50: > 100 µM
SK-OV-3
  GI50: > 100 µM
786-0
  GI50: > 100 µM
A498
  GI50: > 100 µM
ACHN
  GI50: > 100 µM
CAKI-1
  GI50: > 100 µM
RXF 393
  GI50: 28.2 µM
SN12C
  GI50: > 100 µM
TK-10
  GI50: > 100 µM
UO-31
  GI50: > 100 µM
PC-3
  GI50: > 100 µM
DU-145
  GI50: > 100 µM
MDA-MB-435
  GI50: > 100 µM
BT-549
  GI50: > 100 µM
CCRF-CEM [7]
  inhibition at 1 µM: 46%
SR [8]
  inhibition at 1 µM: 36%

## CS(=O)(=O)c1ccc([C@H]2O[C@@H](CO)C[C@]2(O)c2ccc(S(C)(=O)=O)cc2)cc1 (relative stereo)
MCF7
  GI50: > 100 µM
NCI/ADR-RES
  GI50: > 100 µM
[1]
  GI50: > 100 µM
[2]
  GI50: > 100 µM
CCRF-CEM [3]
  GI50: > 100 µM
[4]
  GI50: > 100 µM
K562
  GI50: > 100 µM
MOLT-4
  GI50: > 100 µM
RPMI-8226
  GI50: > 100 µM
SR [5]
  GI50: > 100 µM
A549
  GI50: > 100 µM
EKVX
  GI50: > 100 µM
HOP-62
  GI50: > 100 µM
HOP-92
  GI50: > 100 µM
NCI-H226
  GI50: > 100 µM
NCI-H23
  GI50: > 100 µM
[6]
  GI50: > 100 µM
NCI-H460
  GI50: > 100 µM
NCI-H522
  GI50: > 100 µM
COLO 205
  GI50: > 100 µM
HCC 2998
  GI50: > 100 µM
HCT-116
  GI50: > 100 µM
HCT-15
  GI50: > 100 µM
HT-29
  GI50: > 100 µM
KM12
  GI50: > 100 µM
SW-620
  GI50: > 100 µM
SF-268
  GI50: > 100 µM
SF-295
  GI50: > 100 µM
SF-539
  GI50: > 100 µM
SNB-19
  GI50: > 100 µM
SNB-75
  GI50: > 100 µM
U-251
  GI50: > 100 µM
LOX IMVI
  GI50: > 100 µM
Malme-3M
  GI50: > 100 µM
SK-MEL-28
  GI50: > 100 µM
SK-MEL-5
  GI50: > 100 µM
UACC-257
  GI50: > 100 µM
UACC-62
  GI50: > 100 µM
IGROV-1
  GI50: > 100 µM
OVCAR-3
  GI50: > 100 µM
OVCAR-4
  GI50: > 100 µM
OVCAR-5
  GI50: > 100 µM
OVCAR-8
  GI50: > 100 µM
SK-OV-3
  GI50: > 100 µM
786-0
  GI50: > 100 µM
A498
  GI50: > 100 µM
ACHN
  GI50: > 100 µM
CAKI-1
  GI50: > 100 µM
RXF 393
  GI50: > 100 µM
SN12C
  GI50: > 100 µM
TK-10
  GI50: > 100 µM
UO-31
  GI50: > 100 µM
PC-3
  GI50: > 100 µM
DU-145
  GI50: > 100 µM
MDA-MB-435
  GI50: > 100 µM
BT-549
  GI50: > 100 µM

## O=c1[nH]cc(F)c(=O)[nH]1 [FLUOROURACIL]
MCF7
  GI50: 1.58 µM
NCI/ADR-RES
  GI50: 39.8 µM
[1]
  GI50: 501 µM
[2]
  GI50: 251 µM
CCRF-CEM [3]
  GI50: 31.6 µM
[4]
  GI50: 20 µM
K562
  GI50: 20 µM
MOLT-4
  GI50: 12.6 µM
RPMI-8226
  GI50: 5.01 µM
SR [5]
  GI50: 3.98 µM
A549
  GI50: 2 µM
EKVX
  GI50: 316 µM
HOP-62
  GI50: 20 µM
HOP-92
  GI50: 158 µM
NCI-H226
  GI50: 251 µM
NCI-H23
  GI50: 12.6 µM
[6]
  GI50: 20 µM
NCI-H460
  GI50: 1 µM
NCI-H522
  GI50: 39.8 µM
COLO 205
  GI50: 6.31 µM
HCC 2998
  GI50: 1.58 µM
HCT-116
  GI50: 0.398 µM
HCT-15
  GI50: 6.31 µM
HT-29
  GI50: 6.31 µM
KM12
  GI50: 10 µM
SW-620
  GI50: 25.1 µM
SF-268
  GI50: 50.1 µM
SF-295
  GI50: 50.1 µM
SF-539
  GI50: 1.26 µM
SNB-19
  GI50: 126 µM
SNB-75
  GI50: 200 µM
U-251
  GI50: 39.8 µM
LOX IMVI
  GI50: 6.31 µM
Malme-3M
  GI50: 20 µM
SK-MEL-28
  GI50: 50.1 µM
SK-MEL-5
  GI50: 12.6 µM
UACC-257
  GI50: 100 µM
UACC-62
  GI50: 12.6 µM
IGROV-1
  GI50: 12.6 µM
OVCAR-3
  GI50: 25.1 µM
OVCAR-4
  GI50: 63.1 µM
OVCAR-5
  GI50: 158 µM
OVCAR-8
  GI50: 20 µM
SK-OV-3
  GI50: 158 µM
786-0
  GI50: 12.6 µM
A498
  GI50: 10 µM
ACHN
  GI50: 10 µM
CAKI-1
  GI50: 3.98 µM
RXF 393
  GI50: 50.1 µM
SN12C
  GI50: 25.1 µM
TK-10
  GI50: 126 µM
UO-31
  GI50: 5.01 µM
PC-3
  GI50: 50.1 µM
DU-145
  GI50: 10 µM
MDA-MB-435
  GI50: 10 µM
BT-549
  GI50: 100 µM

Reference: ChEMBL document CHEMBL1143055, “2,3,5-Substituted tetrahydrofurans as cancer chemopreventives. Part 1: synthesis and anti-cancer activities of 5-hydroxymethyl-2,3-diaryl-tetrahydro-furan-3-ols” (2007)
